According to patent US20030180295A1, “Angiocidin: a Cys-Ser-Val-Thr-Cys-Gly specific tumor cell adhesion receptor” (Philadelphia Health and Education Corporation, priority 1999, published 2003):
Entries after “also recorded” stand apart in the source; their conditions may differ.

Tests used:
[1] = tested on: human umbilical vein endothelial cells (HUVEC); experiment: ALAMAR BLUE cell viability assay; assay type: cell-based; settings: 24 hours
Procedure: (§1) Bovine aortic endothelial cells (BAEC), human umbilical vein endothelial cells (HUVEC), fibroblast cells, A549 human lung carcinoma cells (A549), MDA-MB231 human breast carcinoma cells (MB231), MCF7 human breast carcinoma cells (MCF7) were treated with 37 μg/ml of receptor, or buffer alone, for 24 hours. Viability of the cells was measured using the ALAMAR BLUE™ assay, which measures the capacity of cells to metabolize the ALAMAR BLUE™ dye. The ALAMAR BLUE™ assay (available from Biosource International, Camarillo, Calif.) quantitatively measures the proliferation of cell lines and can establish the relative cytotoxicity of chemical agents. The assay incorporates a fluorometric/colorimetric growth indicator based on detection of metabolic activity. The system incorporates an oxidation-reduction (redox) indicator that both fluoresces and changes color in response to chemical reduction of growth medium resulting from cell growth. This causes the redox indicator to change from its oxidized, non-fluorescent, blue form to its reduced, fluorescent, red form. Data can be collected using either fluorescence-based instrumentation (530-560 nm excitation wavelength and 590 nm emission wavelength) or absorbance-based instrumentation (570 nm and 600 nm).
Similarly, the effect of receptor on viability of BAEC cells was compared to mouse Lewis lung carcinoma cells, using the same method.
The effect of angiocidin on HUVEC cell viability was evaluated, and FGF and TSP-1 were added to determine whether they ameliorated the angiocidin effect on cell viability. FGF (Fibroblast Growth Factor) is an endothelial cell mitogen, which promotes cell growth. […] TSP-1 was expected to reverse the inhibition of angiocidin; however, quantities added may have been insufficient to provide the correct molar ratio.

[2] = tested on: Bovine aortic endothelial cells (BAEC); experiment: ALAMAR BLUE cell viability assay; assay type: cell-based
Procedure: as §1
BAEC and BSM cells were treated with increasing concentrations of angiocidin (0, 0.625, 1.25, 2.5, 5, 15, 26 and 37 μg/ml) for 24 hours. Cell viability was measured using the ALAMAR BLUE Tm assay. […] In contrast, BSM cells are unaffected.
The methods of Example 21 were followed, except BAEC cells were used. Additionally, TSP-1 was added at both 20 μg/ml and 5 μg/ml.
As discussed in Example 19 above, angiocidin was added to BAEC cells. Fragments of angiocidin were added as well. […] GST was used as a negative control. V36-R42, the active site of the antisecretory factor, had no effect, illustrating that angiocidin plays a different role from antisecretory factor.
Bovine aortic endothelial cells (BAEC) were cultured overnight in serum-free media containing either 37 μg/ml his-tagged angiocidin or his-tagged GST. Both angiocidin and GST were expressed in bacteria transformed with the pTrcHisA expression vector and purified on nickel affinity chromatography under non-denaturing conditions. Viability was measured by the ALAMAR BLUE™ assay.
This study examined the effect of anti-angiocidin antibody on angiocidin-mediated inhibition of BAEC viability. BAEC were cultured overnight in serum-free media containing either 5 μg/ml angiocidin, 5 μg/ml angiocidin plus 100 μg/ml control IgG, or 5 μg/ml angiocidin plus 100 μg/ml anti-angiocidin IgG. Viability was measured using the ALAMAR BLUE™ assay, described above.
The endothelial cells (BAEC) were incubated overnight 37 μg/ml of the angiocidin, fragments, and GST. Viability was measured using the ALAMAR BLUE™ assay.

[3] = tested on: Human Aortic Endothelial Cells (HAEC); experiment: ALAMAR BLUE cell viability assay; assay type: cell-based; settings: Example 26
[4] = tested on: Lung Human Microvascular Endothelial Cells (HMVEC-L); experiment: ALAMAR BLUE cell viability assay; assay type: cell-based; settings: Example 26
[5] = tested on: MDA-MB231 human breast carcinoma cells (MB231); experiment: ALAMAR BLUE cell viability assay; assay type: cell-based; settings: 37 μg/ml, 24 hours
Procedure: as §1

[6] = tested on: fibroblast cells; experiment: ALAMAR BLUE cell viability assay; assay type: cell-based; settings: 37 μg/ml, 24 hours
Procedure: as §1

[7] = tested on: A549 human lung carcinoma cells (A549); experiment: ALAMAR BLUE cell viability assay; assay type: cell-based; settings: 37 μg/ml, 24 hours
Procedure: as §1

[8] = tested on: MCF7 human breast carcinoma cells (MCF7); experiment: ALAMAR BLUE cell viability assay; assay type: cell-based; settings: 37 μg/ml, 24 hours
Procedure: as §1

[9] = molecular target: TSP-1 (Homo sapiens, UniProt P07996); experiment: Optical binding of angiocidin fragments to TSP-1 derivatized cuvette; settings: test proteins at 10 nm in PBS buffer
Procedure: This study examines the amino terminal (Met1-Lys132) and carboxy terminal (IIe248-Lys380) portions of angiocidin (SEQ ID NOS: 24 and 25, respectively). The binding of undenatured recombinant angiocidin fragments was compared to full length angiocidin. GST was used as a negative control. Binding was evaluated using an optical binding method that uses a cuvette to which TSP-1 is covalently coupled. A laser beam was used to detect whether the test protein (fragments, angiocidin, or GST) is bound to the TSP-1 derivatized cuvette surface. The cuvette was derivatized with 1 μg of TSP-1. The cuvette surfaces were blocked with a 1% BSA solution to prevent nonspecific binding. The test proteins were added at a concentration of […] in a PBS buffer.

[10] = tested on: Bovine aortic endothelial cells (BAEC); experiment: Microvessel stability in collagen matrix; assay type: cell-based; settings: added after 24 hours of microvessel formation, read after additional 24 hours
Procedure: An experiment was performed to evaluate the effect of angiocidin on angiogenesis. Bovine aortic endothelial cells (BAEC) were plated on a collagen matrix. Next, the cells were over-layered with collagen. Angiocidin (37 μg/ml) was added on top of the cells in the treatment plate, and the control plate only received buffer. After 24 hours, phase contrast photomicrographs (200×) were taken. In the control plate, the BAEC cells rearranged themselves into a network of microvessels. […] The experiment in this example was performed as in Example 16, however, no treatment was given to the cells initially. After 24 hours, microvessels formed in both samples, and looked similar to the control plate in FIG. 19. Buffer and angiocidin were then added to the control and treatment plates, respectively. After an additional 24 hours, Hoffman interference photomicrographs were taken. Here, the control was not affected.

[11] = tested on: BAEC; experiment: Adhesion of BAEC to a substrate; assay type: cell-based, bovine; settings: cells pretreated with 37 μg/ml, 30 minutes
Procedure: This example evaluates the effect of angiocidin on adhesion of BAEC to a substrate. Cells in the treatment group were pretreated with angiocidin (37 μg/ml). Cells in the control group were not pretreated. Cells (50,000) were immediately plated on microtiter wells coated with 2 μg of either fibronectin, TSP-1, or BSA. Fibronectin is a strong extracellular matrix protein that attracts BAEC and serves as a positive control, whereas BSA is not an adhesion protein and serves as a negative control. After 30 minutes non-adherent cells were aspirated, wells washed with PBS, fixed with 2.5% glutaraldehyde, stained with 2% Giemsa, and the number of adherent cells per 1 mm^2 counted.

Sequence of TSP-1 (P07996 19-1170): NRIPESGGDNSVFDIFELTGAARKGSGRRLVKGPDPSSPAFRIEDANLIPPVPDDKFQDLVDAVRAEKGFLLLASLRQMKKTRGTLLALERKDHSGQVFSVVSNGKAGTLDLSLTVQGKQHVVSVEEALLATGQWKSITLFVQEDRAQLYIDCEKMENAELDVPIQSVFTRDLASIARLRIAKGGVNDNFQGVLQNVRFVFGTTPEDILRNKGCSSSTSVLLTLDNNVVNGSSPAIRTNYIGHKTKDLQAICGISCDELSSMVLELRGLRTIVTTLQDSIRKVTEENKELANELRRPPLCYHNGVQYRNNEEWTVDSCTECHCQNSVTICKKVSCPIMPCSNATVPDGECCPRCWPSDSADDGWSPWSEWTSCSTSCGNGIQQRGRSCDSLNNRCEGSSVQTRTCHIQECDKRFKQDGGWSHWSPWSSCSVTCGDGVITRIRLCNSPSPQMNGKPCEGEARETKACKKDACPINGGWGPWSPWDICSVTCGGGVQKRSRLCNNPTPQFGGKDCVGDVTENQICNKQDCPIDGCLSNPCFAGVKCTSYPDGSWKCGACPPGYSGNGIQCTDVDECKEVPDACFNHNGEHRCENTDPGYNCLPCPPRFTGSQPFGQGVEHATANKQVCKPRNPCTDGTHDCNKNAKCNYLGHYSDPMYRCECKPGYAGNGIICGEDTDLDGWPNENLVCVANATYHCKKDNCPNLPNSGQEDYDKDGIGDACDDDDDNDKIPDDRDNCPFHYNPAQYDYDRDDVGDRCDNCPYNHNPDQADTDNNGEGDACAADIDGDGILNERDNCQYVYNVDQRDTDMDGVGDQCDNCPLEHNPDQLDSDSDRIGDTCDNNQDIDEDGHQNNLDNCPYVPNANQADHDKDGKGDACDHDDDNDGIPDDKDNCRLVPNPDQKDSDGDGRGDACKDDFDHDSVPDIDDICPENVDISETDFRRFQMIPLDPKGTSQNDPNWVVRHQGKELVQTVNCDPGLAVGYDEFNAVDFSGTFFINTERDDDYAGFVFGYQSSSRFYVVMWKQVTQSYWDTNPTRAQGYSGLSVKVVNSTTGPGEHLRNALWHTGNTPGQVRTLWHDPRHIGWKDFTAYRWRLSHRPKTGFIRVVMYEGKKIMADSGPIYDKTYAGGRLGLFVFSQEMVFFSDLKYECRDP

angiocidin: Cys-Ser-Val-Thr-Cys-Gly (SEQ ID NO: 1)-specific thrombospondin (TSP-1) receptor protein; recombinant form of SEQ ID NO: 2 used in the Examples
cell viability ([1]; 0 to 37 μg/ml): decreasing their viability | decrease of cell viability ([1]; 37 μg/ml): 70-80% | cell viability ([2]; 0 to 37 μg/ml, 24 hours): dose dependent inhibition of BAEC cell viability; also recorded: decreases viability of BAEC cells | decrease of cell viability ([2]; 37 μg/ml, 24 hours): 70-80% | cell viability, angiocidin and fragments ([2]; Example 27, FIG. 34): inhibited cell viability | cell viability, his-tagged proteins ([2]; overnight, serum-free media, purified under non-denaturing conditions): dose-dependent effect on cell viability | cell viability [3]: negative effect on the viability of both cell lines | cell viability [4]: negative effect on the viability of both cell lines | cell viability [5]: No significant difference | cell viability [6]: No significant difference | cell viability [7]: No significant difference | cell viability [8]: No significant difference | binding to TSP-1 derivatized cuvette [9]: show very similar binding at the nano molar range | stability of formed microvessels [10]: disrupted the microvessels that had already formed | adhesion of BAEC ([11]; TSP-1 coated wells): significantly reduced the adhesion of BAEC to the TSP-1 coated plates | adhesion of BAEC ([11]; fibronectin coated wells): remained the same
